One assay relates to L1210. Briefly: Cytotoxicity against mouse L1210 cells after 48 hrs. The settings on record: L1210, 48 h. Format: functional, cell-based.
Assay [1] has as its system Human immunodeficiency virus 1. Kind of assay: Antiviral activity against HIV1 3B infected in human CEM cells assessed as reduction of virus-induced cytopathicity after 4 to 5 days. To be noted: CCRF-CEM. The assay is classed as functional, organism-based.
The test system of assay [2] is Influenza A virus. Briefly: Antiviral activity against Influenza A virus H1N1 by cell based assay. The assay is classed as functional, organism-based.
Another assay relates to Human respirovirus 3. Briefly: Antiviral activity against Parainfluenza-3 virus by cell based assay. Format: functional, organism-based.
Assay [3] deals with Human alphaherpesvirus 2. Briefly: Antiviral activity against HSV-2 Lyons by cell based assay. Format: functional, organism-based.
The subject of assay [4] is Mammalian orthoreovirus 1. Briefly: Antiviral activity against Reovirus-1 by cell based assay. Format: functional, organism-based.
A further assay deals with Coxsackievirus B4. Briefly: Antiviral activity against Coxsackie virus B4 by cell based assay. The assay is classed as functional, organism-based.
The subject of a further assay is HeLa. Kind of assay: Cytotoxicity against human HeLa cells after 72 hrs. Format: functional, cell-based.
In assay [5] the test system is Human alphaherpesvirus 2. Briefly: Antiviral activity against HSV-2 G by cell based assay. Format: functional, organism-based. To be noted: strain G.
For assay [6], the system named is Human alphaherpesvirus 1. Briefly: Antiviral activity against kinase-deficient acyclovir-resistant HSV-1 KOS by cell based assay. The assay is classed as functional, organism-based.
The subject of assay [7] is Vesicular stomatitis virus. Briefly: Antiviral activity against Vesicular stomatitis virus by cell based assay. Format: functional, organism-based.
The test system of the next assay is Punta Toro virus. Kind of assay: Antiviral activity against Punta Toro virus by cell based assay. The assay is classed as functional, organism-based.
Another assay deals with CCRF-CEM. Kind of assay: Cytotoxicity against human CEM cells after 72 hrs. Format: functional, cell-based.
The next assay has as its system Influenza B virus. Briefly: Antiviral activity against Influenza B virus by cell based assay. Format: functional, organism-based.
For assay [8], the system named is Human alphaherpesvirus 1. Kind of assay: Antiviral activity against HSV-1 KOS by cell based assay. Format: functional, organism-based.
The test system of assay [9] is Influenza A virus. Briefly: Antiviral activity against Influenza A virus H3N2 by cell based assay. The assay is classed as functional, organism-based.
Assay [10] concerns Respiratory syncytial virus. Briefly: Antiviral activity against Respiratory syncytial virus Long by cell based assay. The assay is classed as functional, organism-based.
The test system of another assay is Sindbis virus. Kind of assay: Antiviral activity against Sindbis virus by cell based assay. Format: functional, organism-based.
For assay [11], the system named is Human immunodeficiency virus 2. Briefly: Antiviral activity against HIV2 ROD infected in human CEM cells assessed as reduction of virus-induced cytopathicity after 4 to 5 days. The assay is classed as functional, organism-based. The settings on record: ISOLATE ROD, CCRF-CEM.
The next assay relates to Vaccinia virus. Kind of assay: Antiviral activity against Vaccinia virus Lederle by cell based assay. To be noted: Orthopoxvirus vaccinia. Format: functional, organism-based.

The source made the active and inactive calls. No cut-off for these calls is given here.

Consider `C[n+]1cccc(C#Cc2cn([C@@H]3O[C@H](CO)[C@@H](O)[C@H](O)[C@H]3O)c(=O)[nH]c2=O)c1`, for which the IC50 in the assay with L1210, with HeLa and in the assay on CCRF-CEM was greater than 250 µM throughout. In addition, the result (in assay [1]; with Influenza A virus [2]; in the assay with Human respirovirus 3; in the assay with Human alphaherpesvirus 2 [3]; in assay [4]; in the assay on Coxsackievirus B4) was inactive. The outcome (in the assay on Human alphaherpesvirus 2 [5]; in the assay on Human alphaherpesvirus 1 [6]; in assay [7]; in the assay on Punta Toro virus; in the assay on Influenza B virus; with Human alphaherpesvirus 1 [8]) was inactive. The outcome (with Influenza A virus [9]; in assay [10]; in the assay with Sindbis virus; in assay [11]; with Vaccinia virus) was inactive.

On to `CCCC#Cc1cn([C@@H]2O[C@H](CO)[C@@H](O)[C@H](O)[C@H]2O)c(=O)[nH]c1=O`, for which the IC50 with L1210 is 115 µM; in the assay with HeLa, 95 µM; with CCRF-CEM, 123 µM.

Take `CC(C)(C)c1ccc(C#Cc2cn([C@@H]3O[C@H](CO)[C@@H](O)[C@H](O)[C@H]3O)c(=O)nc2O)cc1`: the IC50 with L1210 was 185 µM; in the assay on HeLa it was 37 µM; with CCRF-CEM, greater than 250 µM.

Take `CCCCCc1ccc(C#Cc2cn([C@@H]3O[C@H](CO)[C@@H](O)[C@H](O)[C@H]3O)c(=O)nc2O)cc1`: the IC50 came out at 70 µM in the assay with L1210, 31 µM in the assay on HeLa and 81 µM with CCRF-CEM.

Take `CCCc1cc2cn([C@@H]3O[C@H](CO)[C@@H](O)[C@H](O)[C@H]3O)c(=O)nc2o1`: the IC50 was found to be 132 µM in the assay with L1210, 125 µM in the assay on HeLa and 173 µM in the assay on CCRF-CEM. For the same compound, the outcome (in assay [1]; with Influenza A virus [2]; with Human respirovirus 3; with Human alphaherpesvirus 2 [3]; in assay [4]; with Coxsackievirus B4) was inactive. For the same compound, the outcome (in the assay on Human alphaherpesvirus 2 [5]; in the assay with Human alphaherpesvirus 1 [6]; in [7]; with Punta Toro virus; in the assay with Influenza B virus; in the assay on Human alphaherpesvirus 1 [8]) was inactive. Further, the result (with Influenza A virus [9]; in assay [10]; in the assay on Sindbis virus; in assay [11]; in the assay on Vaccinia virus) was inactive.

Regarding `CC(=O)OC[C@H]1O[C@@H](n2cc(C#Cc3ccccn3)c(=O)[nH]c2=O)[C@H](OC(C)=O)[C@@H](OC(C)=O)[C@@H]1OC(C)=O`, the IC50 in the assay on L1210 was found to be 115 µM; with HeLa, 90 µM; with CCRF-CEM it was 139 µM.

For `CCCC#Cc1cn([C@@H]2O[C@H](CO)[C@@H](O)[C@H](O)[C@H]2O)c(=O)nc1N`, the IC50 with L1210 is no less than 250 µM; in the assay with HeLa, 191 µM; with CCRF-CEM it was greater than 250 µM.

In the case of `CCCCCc1cc2cn([C@@H]3O[C@H](CO)[C@@H](O)[C@H](O)[C@H]3O)c(=O)nc2o1`, the 50% inhibitory concentration (IC50) with L1210 is no less than 250 µM; with HeLa, greater than 250 µM; with CCRF-CEM, greater than 250 µM. Further, the result (in [1]; in the assay with Influenza A virus [2]; with Human respirovirus 3; in the assay with Human alphaherpesvirus 2 [3]; in assay [4]; with Coxsackievirus B4) was inactive. Moreover, the outcome (in the assay on Human alphaherpesvirus 2 [5]; in the assay with Human alphaherpesvirus 1 [6]; in assay [7]; with Punta Toro virus; in the assay with Influenza B virus; in the assay on Human alphaherpesvirus 1 [8]) was inactive. Further, the outcome (in the assay on Influenza A virus [9]; in assay [10]; with Sindbis virus; in assay [11]; in the assay on Vaccinia virus) was inactive.

`CC(=O)OC[C@H]1O[C@@H](n2cc(C#Cc3ccc[n+](C)c3)c(=O)[nH]c2=O)[C@H](OC(C)=O)[C@@H](OC(C)=O)[C@@H]1OC(C)=O`: the IC50 in the assay on L1210, in the assay with HeLa and with CCRF-CEM was greater than 250 µM in each case.

In the case of `O=c1nc(O)c(C#Cc2ccccc2)cn1[C@@H]1O[C@H](CO)[C@@H](O)[C@H](O)[C@H]1O`, the IC50 in the assay on L1210 is 6.2 µM; in the assay with HeLa, 5.4 µM; with CCRF-CEM it was 5.2 µM. For the same compound, the outcome (in [1]; with Influenza A virus [2]; with Human respirovirus 3; in the assay on Human alphaherpesvirus 2 [3]; in assay [4]; in the assay on Coxsackievirus B4) was inactive. Further, the result (in the assay with Human alphaherpesvirus 2 [5]; in the assay with Human alphaherpesvirus 1 [6]; in assay [7]; in the assay on Punta Toro virus; in the assay with Influenza B virus; with Human alphaherpesvirus 1 [8]) was inactive. For the same compound, the result (in the assay on Influenza A virus [9]; in assay [10]; with Sindbis virus; in [11]; with Vaccinia virus) was inactive.

For `C#Cc1cn([C@@H]2O[C@H](CO)[C@@H](O)[C@H](O)[C@H]2O)c(=O)[nH]c1=O`, the IC50 with L1210 was 141 µM; in the assay on HeLa, 231 µM; in the assay on CCRF-CEM, greater than 250 µM.

In the case of `Nc1nc(=O)n([C@@H]2O[C@H](CO)[C@@H](O)[C@H](O)[C@H]2O)cc1C#Cc1ccccc1`, the IC50 is no less than 250 µM in the assay on L1210, 201 µM with HeLa and greater than 250 µM in the assay with CCRF-CEM.

As to `O=c1[nH]c(=O)n([C@@H]2O[C@H](CO)[C@@H](O)[C@H](O)[C@H]2O)cc1C#Cc1ccccn1`, the IC50 with L1210 is 71 µM; with HeLa, 66 µM; with CCRF-CEM, 79 µM. Moreover, the result (in assay [1]; with Influenza A virus [2]; in the assay on Human respirovirus 3; in the assay with Human alphaherpesvirus 2 [3]; in assay [4]; in the assay on Coxsackievirus B4) was inactive. Further, the outcome (in the assay with Human alphaherpesvirus 2 [5]; in the assay with Human alphaherpesvirus 1 [6]; in assay [7]; with Punta Toro virus; with Influenza B virus; in the assay on Human alphaherpesvirus 1 [8]) was inactive. In addition, the result (with Influenza A virus [9]; in assay [10]; in the assay on Sindbis virus; in assay [11]; with Vaccinia virus) was inactive.

On to `CC(=O)OC[C@H]1O[C@@H](n2cc(C#Cc3cccnc3)c(=O)[nH]c2=O)[C@H](OC(C)=O)[C@@H](OC(C)=O)[C@@H]1OC(C)=O`, for which the IC50 with L1210 was greater than 250 µM; in the assay on HeLa, greater than 250 µM; with CCRF-CEM, 182 µM.

Regarding `CCCCCC#Cc1cn([C@@H]2O[C@H](CO)[C@@H](O)[C@H](O)[C@H]2O)c(=O)[nH]c1=O`, the values for the IC50 in the assay with L1210, with HeLa and with CCRF-CEM were 22 µM, 29 µM and 26 µM, respectively.

Take `O=c1[nH]c(=O)n([C@@H]2O[C@H](CO)[C@@H](O)[C@H](O)[C@H]2O)cc1CCc1ccccc1`: the IC50 was 300 µM in the assay with L1210, 43 µM in the assay on HeLa and 244 µM with CCRF-CEM.

As to `CCCCCC#Cc1cn([C@@H]2O[C@H](CO)[C@@H](O)[C@H](O)[C@H]2O)c(=O)nc1N`, the concentration for half-maximal inhibition (IC50) in the assay on L1210 was no less than 250 µM; with HeLa, no less than 250 µM; with CCRF-CEM, greater than 250 µM.

As for `CC(C)(C)c1ccc(C#Cc2cn([C@@H]3O[C@H](CO)[C@@H](O)[C@H](O)[C@H]3O)c(=O)nc2N)cc1`, the values for the half-maximal inhibitory concentration (IC50) in the assay with L1210, in the assay on HeLa and in the assay on CCRF-CEM were greater than 250 µM, 140 µM and greater than 250 µM, respectively.

Take `C#Cc1cn([C@@H]2O[C@H](CO)[C@@H](O)[C@H](O)[C@H]2O)c(=O)nc1N`: the IC50 is no less than 250 µM with L1210, no less than 250 µM in the assay on HeLa and greater than 250 µM with CCRF-CEM.

Regarding `CC(=O)OC[C@H]1O[C@@H](n2cc(C#Cc3cccc[n+]3C)c(=O)[nH]c2=O)[C@H](OC(C)=O)[C@@H](OC(C)=O)[C@@H]1OC(C)=O`, the IC50 in the assay on L1210 is 203 µM; with HeLa, 232 µM; with CCRF-CEM it was greater than 250 µM.

For the compound `CCCCCc1ccc(C#Cc2cn([C@@H]3O[C@H](CO)[C@@H](O)[C@H](O)[C@H]3O)c(=O)nc2N)cc1`, the half-maximal inhibitory concentration (IC50) stood at 132 µM in the assay on L1210, 43 µM in the assay with HeLa and 115 µM in the assay with CCRF-CEM.

For the origin of these results see ChEMBL document CHEMBL2331518, “Rapid microwave-enhanced synthesis of C5-alkynyl pyranonucleosides as novel cytotoxic antitumor agents” (Bioorg Med Chem Lett, 2013).
